Measurements from patent US20240285551A1, “A SMALL MOLECULE TNF-a INHIBITOR AND PREPARATION METHOD AND USE THEREOF” (FUDAN UNIVERSITY, priority 2021, published 2024).
Values belong to the molecule of their own block, whether it stands above or below them.

How the values were obtained:
[1] = test system: IL-6; assay: colon tissue IL-6 mRNA by qPCR, DSS acute UC mice; type: in vivo; details: 10 mg/kg
Method: (§1) Except for the normal group, all other groups of mice were allowed to freely drink a 3% DSS solution which was freshly prepared and replaced the next day (wherein the 3% DSS solution was prepared by weighing 3 g of a DSS powder (from MP Biomedicals, USA with a molecular weight of 36,000 to 50,000) and fully dissolving it in 100 mL of the drinking water for the mice); whereas the normal group was given blank drinking water; the control group mice drank water normally for 7 days, while the DSS group mice drank the 3% DSS solution freely for 7 days and were administrated for 6 days from the second day DSS was given. The mice were administered by gavage once a day with a volume of 10 mL/kg, wherein the normal control group and DSS group were gavaged with a solvent of 0.5% CMC-Na (wherein a 0.5% CMC-Na solution is at a concentration of 0.5 g/100 mL, the same below), while the other groups were separately gavaged with drugs dissolved in 0.5% CMC-Na.
(§2) After dissection, a segment of the colon was taken from the same part of each mouse, total RNAs were extracted from tissues, and mRNA expressions of such inflammatory factors as TNF-α, IL-1β, IL-6, and IL-23 in colon tissues of the mice were detected through qPCR.

[2] = test system: IL-23; assay: colon tissue IL-23 mRNA by qPCR, DSS acute UC mice; type: in vivo; details: 10 mg/kg
Method: as §1, §2

[3] = test system: IL-1β; assay: serum IL-1β protein by ELISA, DSS acute UC mice; type: in vivo; details: 10 mg/kg
Method: as §1

[4] = test system: TNF-α; assay: release of the inflammatory factor TNF-α by LPS induced macrophages (RAW264.7), RT-PCR; type: cell-based; details: Mus musculus, RAW264.7, LPS 1 μg/ml, 24 hours, read-out: IC50 with respect to the release of the inflammatory factor TNF-α
Method: LPS (1 μg/ml) and different concentrations of (±)-STU104 or (R)-STU104 (0.1 to 50 μM) were added respectively after the cells grew to a fused state, and incubated together at 37° C. under 5% CO2 for 24 hours. A blank control group was established, and RT-PCR was employed to detect the inhibition states of TNF-α in cells by these compounds.

[5] = test system: TNF-α; assay: colon tissue TNF-α mRNA by qPCR, DSS acute UC mice; type: in vivo; details: 10 mg/kg
Method: as §1, §2

[6] = test system: IL-6; assay: serum IL-6 protein by ELISA, DSS acute UC mice; type: in vivo; details: 10 mg/kg
Method: as §1
(§3) To investigate the effects of compounds (R)-STU104, (S)-STU104, and (±)-STU104 on the secretion of such inflammatory factors as TNF-α, IL-1β, IL-6, and IL-23 by mice of the DSS induced acute ulcerative colitis model in C57 mice, we isolated serum after blood acquisition and detected the contents of such inflammatory factors as TNF-α, IL-1β, IL-6, and IL-23 in the serum of mice using ELISA.

[7] = test system: DSS induced acute ulcerative colitis model in C57 mice; assay: DSS induced acute ulcerative colitis in C57 mice (body weight, DAI, colon length, H&E pathology); type: in vivo; details: 10 mg/kg, gavage once a day; for DAI score inhibition ratio / body weight recovery rate: day 7
Method: as §1
The normal control group mice were vivacious with glossy fur, stable weight gain, and normal stools appearing elliptical or spindle shaped.
In order to further evaluate the disease development for each group of acute UC mice, we performed DAI scoring on the loose and bloody stools etc. for each mouse (see panel B1 in FIG. 3). […] As the experiment progressed, the disease became gradually worsened, with some animals experiencing severe bloody stools and significant emaciation.
(§4) After dissection, the colon of each mouse was taken and the length of the colon was measured separately.

[8] = test system: IL-1β; assay: colon tissue IL-1β mRNA by qPCR, DSS acute UC mice; type: in vivo; details: 10 mg/kg
Method: as §1, §2

[9] = test system: IL-23; assay: serum IL-23 protein by ELISA, DSS acute UC mice; type: in vivo; details: 10 mg/kg
Method: as §1, §3

[10] = test system: TNF-α; assay: serum TNF-α protein by ELISA, DSS acute UC mice; type: in vivo; details: 10 mg/kg
Method: as §1, §3

[11] = test system: IL-6; assay: serum IL-6 protein by ELISA, IL-10 knockout chronic UC mice; type: in vivo
Method: (§5) Ten C57 mice (aged 10-12 weeks, around 20 g) with an identified genotype of Wildtype were taken as the normal control group. […] The mice were administered by gavage once a day with a volume of 10 mL/kg, wherein the normal control group and DSS group were gavaged with a solvent of 0.5% CMC-Na while the other groups were separately gavaged with drugs dissolved in 0.5% CMC-Na.
(§6) To investigate the effects of (R)-STU104 on the secretion of such inflammatory factors as TNF-α, IL-1β, IL-6, and IL-23 by spontaneous IBD mice due to IL-10 knockout, we isolated serum after blood acquisition and detected the contents of such inflammatory factors as TNF-α, IL-1β, IL-6, and IL-23 in the serum of mice using ELISA.

[12] = test system: IL-1β; assay: colon tissue IL-1β mRNA by qPCR, IL-10 knockout chronic UC mice; type: in vivo
Method: as §5, §2

[13] = test system: TNF-α; assay: colon tissue TNF-α mRNA by qPCR, IL-10 knockout chronic UC mice; type: in vivo
Method: as §5, §2

[14] = test system: Mnk1, MK2, and elF4E in the p38 signaling pathway; assay: western blotting of phosphorylation of p38 signaling pathway proteins in LPS induced RAW264.7 cells; type: cell-based; details: RAW264.7, 3.125, 6.25 and 12.5 μM, LPS 500 μg/L
Text: (§7) To further clarify the inhibitory mechanism of (R)-STU104 on TNF-α release, we detected the effects of (R)-STU104 on phosphorylation levels of proteins related to the p38 signaling pathway (see FIG. 2). The p38 inhibitor (SB203580) was used as a positive control, and western blotting was used to detect protein expression levels.

[15] = test system: IL-23; assay: serum IL-23 protein by ELISA, IL-10 knockout chronic UC mice; type: in vivo
Method: as §5, §6

[16] = test system: IL-23; assay: colon tissue IL-23 mRNA by qPCR, IL-10 knockout chronic UC mice; type: in vivo
Method: as §5, §2

[17] = test system: TAK1; assay: western blotting of TAK1 phosphorylation (upstream kinase of MKK3); type: cell-based
Text: as §7

[18] = test system: IL-6; assay: colon tissue IL-6 mRNA by qPCR, IL-10 knockout chronic UC mice; type: in vivo
Method: as §5, §2

[19] = test system: chronic ulcerative colitis model in IL-10 whole gene knockout mice; assay: chronic ulcerative colitis in IL-10 whole gene knockout mice (survival, body weight, colon length, H&E pathology); type: in vivo; details: for total mortality rate: gavage once a day
Method: as §5, §4

[20] = test system: IL-1β; assay: serum IL-1β protein by ELISA, IL-10 knockout chronic UC mice; type: in vivo
Method: as §5, §6

[21] = test system: TNF-α; assay: serum TNF-α protein by ELISA, IL-10 knockout chronic UC mice; type: in vivo
Method: as §5, §6

IC50 [4]: 1270 nM
Compound: COc1ccc(C2CC(=O)c3cc(OC)cc(OC)c32)cc1 (racemic) [(±)-STU104]
inhibition ratio of IL-6 mRNA in colon tissues [1]: 56.1%
inhibition ratio of IL-23 mRNA in colon tissues [2]: 73.1%
inhibition ratio of IL-1β protein content in serum [3]: 68.6%
inhibition ratio of TNF-α mRNA in colon tissues [5]: 55.4%
inhibition ratio of IL-6 protein content in serum [6]: 49.1%
colon length recovery rate (inhibition of colon shortening) [7]: 25.7%
recovery rate of colon pathological sections (H&E) [7]: 48.3%
DAI score inhibition ratio [7]: 8.3%
body weight recovery rate [7]: 20.0%
inhibition ratio of IL-1β mRNA in colon tissues [8]: 67.5%
inhibition ratio of IL-23 protein content in serum [9]: 45.2%
inhibition ratio of TNF-α protein content in serum [10]: 48.1%

Compound: COc1ccc([C@H]2CC(=O)c3cc(OC)cc(OC)c32)cc1 [(R)-STU104, 4,6-dimethoxy-3R-(4-methoxyphenyl)-2,3-dihydro-1H-indanone]
inhibition ratio of IL-6 mRNA in colon tissues [1]: 65.0%
inhibition ratio of IL-6 protein content in serum ([11]; high dose (10 mg/kg)): 57.6%
inhibition ratio of IL-6 protein content in serum ([11]; low dose (1 mg/kg)): 34.4%
inhibition ratio of IL-6 protein content in serum ([11]; medium dose (3 mg/kg)): 44.5%
inhibition ratio of IL-1β mRNA in colon tissues ([12]; high dose (10 mg/kg)): 43.8%
inhibition ratio of IL-1β mRNA in colon tissues ([12]; low dose (1 mg/kg)): 22.8%
inhibition ratio of IL-1β mRNA in colon tissues ([12]; medium dose (3 mg/kg)): 36.1%
inhibition ratio of TNF-α mRNA in colon tissues ([13]; high dose (10 mg/kg)): 68.5%
inhibition ratio of TNF-α mRNA in colon tissues ([13]; low dose (1 mg/kg)): 24.7%
inhibition ratio of TNF-α mRNA in colon tissues ([13]; medium dose (3 mg/kg)): 69.5%
phosphorylation of key proteins Mnk1, MK2, and elF4E in the p38 signaling pathway [14]: inhibiting, in a concentration dependent manner
inhibition ratio of IL-23 mRNA in colon tissues [2]: 84.8%
inhibition ratio of IL-1β protein content in serum [3]: 70.1%
IC50 [4]: 580 nM
inhibition ratio of IL-23 protein content in serum ([15]; high dose (10 mg/kg)): 64.4%
inhibition ratio of IL-23 protein content in serum ([15]; low dose (1 mg/kg)): 39.6%
inhibition ratio of IL-23 protein content in serum ([15]; medium dose (3 mg/kg)): 58.2%
inhibition ratio of IL-23 mRNA in colon tissues ([16]; high dose (10 mg/kg)): 58.2%
inhibition ratio of IL-23 mRNA in colon tissues ([16]; low dose (1 mg/kg)): 31.0%
inhibition ratio of IL-23 mRNA in colon tissues ([16]; medium dose (3 mg/kg)): 51.7%
inhibition ratio of TNF-α mRNA in colon tissues [5]: 64.8%
inhibition ratio of IL-6 protein content in serum [6]: 71.5%
colon length recovery rate (inhibition of colon shortening) [7]: 34.6%
recovery rate of colon pathological sections (H&E) [7]: 65.6%
DAI score inhibition ratio [7]: 29.3%
body weight recovery rate [7]: 22.4%
phosphorylation of TAK1 [17]: no inhibition
inhibition ratio of IL-6 mRNA in colon tissues ([18]; high dose (10 mg/kg)): 48.6%
inhibition ratio of IL-6 mRNA in colon tissues ([18]; low dose (1 mg/kg)): 26.3%
inhibition ratio of IL-6 mRNA in colon tissues ([18]; medium dose (3 mg/kg)): 37.1%
efficiency of weight gain (body weight recovery) ([19]; high-dose group (10 mg/kg)): 19.4%
inhibition ratio of colon shortening ([19]; high-dose group (10 mg/kg)): 41.2%
recovery rate of colon pathological sections (H&E) ([19]; high-dose group (10 mg/kg)): 56.7%
total mortality rate ([19]; high-dose group (10 mg/kg)): no deaths occurred
efficiency of weight gain (body weight recovery) ([19]; low-dose group (1 mg/kg)): 13.6%
inhibition ratio of colon shortening ([19]; low-dose group (1 mg/kg)): 17.7%
recovery rate of colon pathological sections (H&E) ([19]; low-dose group (1 mg/kg)): 33.0%
total mortality rate ([19]; low-dose group (1 mg/kg)): 20%
efficiency of weight gain (body weight recovery) ([19]; medium-dose group (3 mg/kg)): 14.8%
inhibition ratio of colon shortening ([19]; medium-dose group (3 mg/kg)): 29.4%
recovery rate of colon pathological sections (H&E) ([19]; medium-dose group (3 mg/kg)): 50.5%
total mortality rate ([19]; medium-dose group (3 mg/kg)): no deaths occurred
inhibition ratio of IL-1β mRNA in colon tissues [8]: 68.3%
inhibition ratio of IL-23 protein content in serum [9]: 56.7%
inhibition ratio of IL-1β protein content in serum ([20]; high dose (10 mg/kg)): 51.8%
inhibition ratio of IL-1β protein content in serum ([20]; low dose (1 mg/kg)): 40.1%
inhibition ratio of IL-1β protein content in serum ([20]; medium dose (3 mg/kg)): 50.0%
inhibition ratio of TNF-α protein content in serum ([21]; high dose (10 mg/kg)): 61.9%
inhibition ratio of TNF-α protein content in serum ([21]; low dose (1 mg/kg)): 40.2%
inhibition ratio of TNF-α protein content in serum ([21]; medium dose (3 mg/kg)): 60.3%
inhibition ratio of TNF-α protein content in serum [10]: 55.4%
